The values below come from PubChem BioAssay (NCI).

Common to all, as to assay: growth of human tumour cells (NCI), 48 h
Experiment [1] has as its system OVCAR-4 ovarian.
Experiment [2] relates to HCT-15 colon.
In experiment [3] the test system is NCI-H23 lung.
Experiment [4] has as its system 786-0 renal.
In experiment [5] the test system is MOLT-4 leukemia.
For experiment [6], the system named is OVCAR-8 ovarian.
For experiment [7], the system named is K-562 leukemia.
Experiment [8] has as its system ACHN renal.
Experiment [9] deals with MALME-3M melanoma.
The subject of experiment [10] is HOP-92 NSCLC.

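Compound exposure: 48 hours, 5 concentrations, 96-well plates. Here, GI50 denotes the concentration required for 50% inhibition of growth. TGI is the concentration that stops growth completely.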

Take `Cc1cc2cc3cc(C)c(N(C)C)cc3nc2cc1N(C)C`: the GI50 was 2.25 µM in experiment [1]; 12.1 µM in [2]; 1800 nM in experiment [3]; 3.87 µM in experiment [4]; 3.29 µM in [5]; 2.83 µM in experiment [6]. The GI50 in [7] is 4.79 µM; in [8], 4.76 µM; in experiment [9], 3530 nM; in experiment [10] it was 1.83 µM. The TGI in experiment [1] is 19.5 µM; in experiment [2] it was more than 100 µM; in experiment [3], 20.8 µM; in [4], 16.3 µM; in experiment [5], more than 100 µM; in [6], 28.1 µM. Besides, the TGI is more than 100 µM in experiment [7], more than 100 µM in experiment [8], 19 µM in experiment [9] and 8.36 µM in [10].
On to `Cc1nc2sccn2c(=O)c1CCN1CCC(=C(c2ccc(F)cc2)c2ccc(F)cc2)CC1`, for which the GI50 was 12.6 µM in experiment [1]; 4.53 µM in experiment [2]; 13200 nM in experiment [3]; 12 µM in experiment [4]; 8.52 µM in [5]; 17 µM in experiment [6]. For the same molecule, the GI50 is 5.18 µM in [7], 13.4 µM in [8], 11400 nM in experiment [9] and 5.16 µM in [10]. Moreover, the TGI worked out at 27.9 µM in experiment [1]; 17.5 µM in experiment [2]; 29 µM in experiment [3]; 27.8 µM in experiment [4]; 29.9 µM in experiment [5]; 41 µM in [6]. Also, the TGI in experiment [7] worked out at 26.2 µM; in experiment [8], 26.3 µM; in [9] it was 25.5 µM; in experiment [10], 19.2 µM.
`CC(=O)c1c(C(F)(F)F)n([O-])c2ccc(Cl)cc2[n+]1=O`: the GI50 in experiment [1] is 19 µM; in experiment [2], 0.649 µM; in experiment [3], 1720 nM; in experiment [4] it was 0.0551 µM; in experiment [6] it was 3.66 µM; in experiment [7], 0.509 µM. The GI50 is 0.69 µM in experiment [8], 1840 nM in experiment [9] and 1.23 µM in experiment [10]. The TGI came out at 50.8 µM in [1]; 4.05 µM in experiment [2]; 6.64 µM in [3]; 0.382 µM in experiment [4]; 1.54 µM in [5]; 20.4 µM in experiment [6]. Further, the TGI in experiment [7] turned out to be 3.52 µM; in experiment [8] it was 4.96 µM; in experiment [9], 3.73 µM; in experiment [10] it was 2.9 µM.
`O=C(CC1(O)C(=O)Nc2ccccc21)c1ccccc1Cl` (centres undefined): the TGI in experiment [1], in [2], in [3], in experiment [4], in [5] and in [6] was more than 100 µM in each case. Moreover, the TGI in [7], in [8], in experiment [9] and in [10] was more than 100 µM each time.
Regarding `CC1C[C@H](OC(N)=O)C(C)CC1=O` (some centres undefined), the TGI in [1], in experiment [2], in experiment [3], in experiment [4], in experiment [5] and in experiment [6] was more than 100 µM throughout. In addition, the TGI in experiment [7], in [8], in [9] and in [10] was more than 100 µM in each case.
In the case of `CC(C)(C)[Si](C)(C)OCC1OC(n2cnc3c(NC(=O)c4ccccc4)ncnc32)CC1O` (centres undefined), the TGI in experiment [1] was 84.6 µM; in [2], more than 100 µM; in experiment [3], more than 100 µM; in experiment [4], 38.6 µM; in experiment [5] it was 49.9 µM; in [6], more than 100 µM. Also, the TGI in experiment [7] is 48.2 µM; in [8] it was 95.4 µM; in experiment [9], 60.7 µM; in [10], 55.2 µM.
`C/C(=N\NC(=O)c1ccncc1)c1ccc2ccccc2c1O`: the TGI in [1] was more than 65.2 µM; in [2] it was more than 100 µM; in experiment [3], more than 51 µM; in [4], 48.4 µM; in experiment [5] it was 40.3 µM; in experiment [6], 35.3 µM. Also, the TGI in [7] was more than 100 µM; in [8], more than 100 µM; in [9] it was 43.2 µM; in experiment [10], more than 100 µM.
In the case of `COc1ccc(Nn2c(SCC(=O)Nc3nc(-c4ccc(Cl)cc4)cs3)nc(C)c2C)cc1`, the GI50 in experiment [1] is 4.02 µM; in experiment [2] it was 4.79 µM; in [3], 1530 nM; in [4], 3.46 µM; in [5] it was 2.54 µM; in experiment [6] it was 4.82 µM. Also, the GI50 was 1.58 µM in experiment [7], 2.27 µM in experiment [8], 2900 nM in [9] and 2.42 µM in experiment [10]. The TGI was more than 100 µM in experiment [1]; more than 100 µM in experiment [2]; more than 100 µM in experiment [3]; 18.2 µM in experiment [4]; more than 100 µM in experiment [5]; more than 100 µM in experiment [6]. Moreover, the TGI is more than 100 µM in experiment [7], 8.76 µM in experiment [8], more than 100 µM in [9] and 7.8 µM in [10].
Turning to `CCCN(CCCC(NC(C)=O)C(=O)NCc1ccccc1)C(=O)NC` (centres undefined), the TGI in experiment [1], in [2], in experiment [3], in experiment [4], in experiment [5] and in experiment [6] was more than 100 µM in each case. Also, the TGI in [7], in [8], in [9] and in experiment [10] was more than 100 µM in each case.
Regarding `N/N=C1\C(=O)N(C2CCCCC2)C(=O)C1C(=O)NC1CCCCC1` (centres undefined), the TGI in experiment [1], in experiment [2], in [3], in experiment [4], in experiment [5] and in [6] was more than 100 µM in each case. In addition, the TGI in [7], in [8], in experiment [9] and in experiment [10] was more than 100 µM in each case.
As to `O=[N+]([O-])c1ccc(-c2nc(-c3ccccc3)c(-c3ccccc3)n2-c2ccccc2)cc1`, the GI50 in experiment [1] is 2.94 µM; in [2] it was 2.82 µM; in experiment [3], 2620 nM; in [4], 4.82 µM; in experiment [5] it was 2.28 µM; in experiment [6], 3.19 µM. Besides, the GI50 is 3.24 µM in experiment [7], 2.62 µM in experiment [8], 2780 nM in experiment [9] and 2.42 µM in experiment [10]. For the same molecule, the TGI in experiment [1] is 14.9 µM; in experiment [2], 8.76 µM; in experiment [3], 11.3 µM; in [4] it was 22.3 µM; in experiment [5] it was 11.5 µM; in [6] it was more than 100 µM. The TGI is 95.9 µM in experiment [7], 27.4 µM in experiment [8], 8.58 µM in experiment [9] and 7.44 µM in experiment [10].
On to `Cc1cc2c(=O)n(-c3ccc(F)cc3)c(C)nc2c(C(=O)O)c1C`, for which the TGI in [1], in experiment [2], in [3], in experiment [4], in experiment [5] and in [6] was more than 100 µM each time. Further, the TGI in experiment [7], in experiment [8], in experiment [9] and in [10] was more than 100 µM throughout.
Take `CC(C)[C@@]12C[C@@H](OC(=O)[C@H]3CO3)[C@@](C)(O1)[C@@H]1CC[C@@H](C)[C@H]1[C@@H]2OC(=O)/C=C/c1ccccc1`: the GI50 in experiment [1] is 11.5 µM; in experiment [2], 11.1 µM; in experiment [3] it was 19700 nM; in experiment [4], 3.55 µM; in experiment [5], 18.1 µM; in experiment [6] it was 0.434 µM. For the same molecule, the GI50 is 18.5 µM in experiment [7], 0.108 µM in experiment [8], 13900 nM in experiment [9] and 9.22 µM in [10]. The TGI was 30.2 µM in experiment [1]; more than 100 µM in experiment [2]; more than 100 µM in experiment [3]; 22 µM in [4]; more than 100 µM in [5]; more than 52.4 µM in experiment [6]. The TGI in experiment [7] was more than 100 µM; in experiment [8] it was 3.07 µM; in experiment [9], 30 µM; in experiment [10] it was 27.1 µM.
On to `COc1ccc(NC(=O)n2nc(N)c3ccccc32)cc1OC`, for which the GI50 in [1] was 63.2 µM; in experiment [2], 44.1 µM; in [3] it was 83500 nM; in experiment [4], more than 100 µM; in experiment [5], 39.4 µM; in experiment [6], 39.7 µM. Also, the GI50 in experiment [7] was 41.2 µM; in [8] it was 58.3 µM; in experiment [9], more than 100000 nM; in [10] it was 24.6 µM. For the same molecule, the TGI in experiment [1], in experiment [2], in experiment [3], in experiment [4], in experiment [5] and in [6] was more than 100 µM throughout. In addition, the TGI in [7], in [8], in experiment [9] and in experiment [10] was more than 100 µM in each case.
For `COc1ccc(C(=O)c2ccc(OC)c(OC)c2OC)cc1`, the GI50 in experiment [1] was 7.08 µM; in [2] it was 0.596 µM; in [3], 3320 nM; in [4], 9.85 µM; in experiment [5], 1.11 µM; in [6] it was 3 µM. The GI50 in experiment [7] was 0.351 µM; in experiment [8] it was 6.56 µM; in experiment [9], 1770 nM; in [10], 5.4 µM. In addition, the TGI in experiment [1], in experiment [2], in experiment [3], in experiment [4], in experiment [5] and in [6] was more than 100 µM in each case. The TGI in [7], in experiment [8], in experiment [9] and in [10] was more than 100 µM in each case.
As for `CSC(C1c2ccccc2N(C)C2=NC(=O)N(C)C(=O)C21Cl)S(=O)(=O)c1ccc(C)cc1` (centres undefined), the TGI in experiment [1] is more than 100 µM; in experiment [2], more than 100 µM; in experiment [3] it was 83.5 µM; in experiment [4] it was 33.2 µM; in experiment [5] it was 40.8 µM; in experiment [6], 46.3 µM. The TGI is 43.5 µM in experiment [7], more than 100 µM in experiment [8], more than 100 µM in [9] and 59.9 µM in [10].
`CCOC(=O)C(=O)Nc1c(F)cc(F)cc1Br`: the TGI in experiment [1], in experiment [2], in experiment [3], in experiment [4], in experiment [5] and in [6] was more than 100 µM throughout. In addition, the TGI in experiment [7], in experiment [8], in experiment [9] and in [10] was more than 100 µM throughout.
In the case of `C1CCN(CCC2CCCCN2)CC1` (centres undefined), the TGI in experiment [1], in [2], in [3], in experiment [4], in experiment [5] and in [6] was more than 100 µM each time. Further, the TGI in experiment [7], in experiment [8], in experiment [9] and in [10] was more than 100 µM throughout.
As to `CN(C)c1ccc(/C=C(/NC(=O)c2ccccc2)c2nc3ccc(Cl)cc3[nH]2)cc1`, the TGI was more than 100 µM in experiment [1]; more than 73.1 µM in experiment [2]; more than 100 µM in [3]; more than 100 µM in experiment [4]; 71.1 µM in experiment [5]; more than 100 µM in experiment [6]. Further, the TGI in experiment [7] is more than 73.8 µM; in experiment [8] it was more than 100 µM; in experiment [9], more than 82.9 µM; in experiment [10] it was 80.1 µM.
Take `CCn1c2c(n(CC)c1=S)-c1c(n(CC)c(=S)n1CC)SSSS2`: the TGI is 20.1 µM in [1]; 11.8 µM in [2]; 22.3 µM in experiment [3]; 28.6 µM in experiment [4]; 11.1 µM in experiment [5]; 23.3 µM in experiment [6]. Besides, the TGI stood at 8.97 µM in experiment [7], 16 µM in experiment [8], 9.08 µM in experiment [9] and 9.71 µM in experiment [10].
